Earlier results in US9040083B2, “Orally effective methylphenidate extended release powder and aqueous suspension product” (Tris Pharma, Inc., priority 2011, dated 2015).

Conditions: oral dosing of radiolabeled methylphenidate in humans

Which “radioactivity recovered in urine” value does the source give for COC(=O)C(c1ccccc1)C1CCCCN1 (stereo not shown) [methylphenidate] here?
The value was “about 90%”.
